The results in this text go back to patent publication US20100168087A1, “BENZO[1,2,3]THIADIAZINE DERIVATES” (priority 2006, published 2010).

One data set concerns male Sprague-Dawley rats. In words: elevated maze test in the rat. It counts as in vivo. The note with it: per os, 60-min pretreatment, 5-min measurement, time spent in the open arms and number of entries into the open arms. As to the method: Pharmacological activity of the compounds of the general Formula (I) has been evaluated in elevated maze test in the rat.
The tests were carried out according to the method of S. Pellow and coworkers (J. Neurosci. Methods. 1985, 14, 149-167). During the test, a wooden-floor cross elevated by 50 cm from the floor was used. The length and the width of the arms of the cross were 100 and 15 cm, respectively. Two opposite arms of the cross are fitted at the ends and both sides with black plexyglass wall of 40 cm height (closed arms).
The central section of the cross measuring 15 by 15 cm is open. The other two opposite arms of the cross are not provided with walls (open arms).
The tests were carried out in male Sprague-Dawley rats weighing 200 to 220 g. After the 60-min pretreatment time (per os treatment), the animal was placed in the center of the maze. During the 5-min measurement time, four variables were recorded: the time spent in the open arms; the time spent in the closed arms; the number of entries into the open arms; the number of entries into the closed arms.
Animals normally avoid the open and light parts of the maze, thereby spending little time therein only. The anxiolytic effect of the compounds of the general Formula (I) is indicated by the increase in the time spent (in seconds) in the open arms and/or by the increase in the number of the entries into the open compartments of the maze. The minimum effective dose (MED) was determined for each tested compounds regarding the time spent in the open arms and the number of entries into the open arms. During the test, the known anxiolytic compound 1-methyl-5-phenyl-7-chloro-1,3-dihydro-2H-1,4-benzodiazepin-2-one (INN: diazepam) of the Formula (IV)
was used. Treatment of the animals was carried out orally with the doses 0.1, 0.3, 1.0, 3.0 for diazepam and 0.01, 0.1, 1.0 mg/kg for the compounds of the general Formula (I).
As for `CC1=NNS(=O)(=O)c2c1ccc(Cl)c2Cl` [Example 3, 7,8-Dichloro-4-methylbenzo[1,2,3]tiadiazine-1,1-dioxide], the “MED (minimum effective dose), anxiolytic effect in elevated maze test” value (“MED (minimum effective dose)” below) was “≦0.01 mg/kg p.o”.

For `CN1N=Cc2ccc(Cl)c(Cl)c2S1(=O)=O` [Example 20, 7,8-Dichloro-2-methylbenzo[1,2,3]thiadiazine-1,1-dioxide], the “MED (minimum effective dose)” value is “≦0.01 mg/kg p.o”.

As to `CC1=NNS(=O)(=O)c2c(Cl)c(Cl)cc(C)c21` [Example 5, 7,8-Dichloro-4,5-dimethylbenzo[1,2,3]thiadiazine-1,1-dioxide], the “MED (minimum effective dose)” value is listed as “≦0.01 mg/kg p.o”.

`CN1C(=O)CN=C(c2ccccc2)c2cc(Cl)ccc21` [Diazepam, 1-methyl-5-phenyl-7-chloro-1,3-dihydro-2H-1,4-benzodiazepin-2-one, reference compound]: the “MED (minimum effective dose)” value is listed as 1.00 mg/kg p.o.

Test system in the next data set: not given
Experiment: not given
Conditions: not given
`CN1N=Cc2ccccc2S1(=O)=O` [Example 23, 2-Methylbenzo[1,2,3]thiadiazine-1,1-dioxide] displayed a melting point of 79 to 80 °C.

The compound `CC1=NNS(=O)(=O)c2c1cc(C)c(Cl)c2Cl` [Example 10, 7,8-Dichloro-4,6-dimethylbenzo[1,2,3]thiadiazine-1,1-dioxide] had a melting point of 224 to 226 °C.

Regarding `CN1N=Cc2ccc(Cl)c(Cl)c2S1(=O)=O` [Example 20, 7,8-Dichloro-2-methylbenzo[1,2,3]thiadiazine-1,1-dioxide], the melting point fell in the range of 120 to 121 °C.

On to `O=S1(=O)NN=Cc2ccc(Cl)cc21` [Example 15, 7-chlorobenzo[1,2,3]thiadiazine-1,1-dioxide], for which the melting point was 221 to 223 °C.

In turn, `CCC1=NNS(=O)(=O)c2c1ccc(Cl)c2Cl` [Example 4, 7,8-Dichloro-4-ethylbenzo[1,2,3]thiadiazine-1,1-dioxide] showed a melting point of 238 to 239 °C.

Regarding `COc1ccc2c(c1Cl)S(=O)(=O)N(C)N=C2` [Example 28, 8-chloro-2-methyl-7-methoxybenzo[1,2,3]thiadiazine-1,1-dioxide], the melting point was 173 to 175 °C.

Regarding `CN1N=Cc2ccc(Cl)cc2S1(=O)=O` [Example 21, 7-chloro-2-methylbenzo[1,2,3]thiadiazine-1,1-dioxide], the melting point was 131 to 133 °C.

`O=S1(=O)NN=Cc2ccc(Cl)c(Cl)c21` [Example 11, 7,8-Dichlorobenzo[1,2,3]thiadiazine-1,1-dioxide] gave a melting point of 183 to 185 °C.

For `CCC1=NN(C)S(=O)(=O)c2c1ccc(Cl)c2Cl` [Example 18, 7,8-Dichloro-4-ethyl-2-methylbenzo[1,2,3]thiadiazine-1,1-dioxide], the melting point is 119 to 120 °C.

Turning to `COc1ccc2c(c1OC)S(=O)(=O)NN=C2C` [Example 9, 7,8-Dimethoxy-4-methylbenzo[1,2,3]thiadiazine-1,1-dioxide], the melting point fell in the range of 238 to 240 °C.

In the case of `COc1cccc2c1S(=O)(=O)NN=C2C` [Example 8, 4-Methyl-8-methoxybenzo[1,2,3]thiadiazine-1,1-dioxide], the melting point fell in the range of 194 to 197 °C.

`COc1ccc2c(c1)S(=O)(=O)NN=C2C` [Example 14, 4-Methyl-7-methoxybenzo[1,2,3]thiadiazine-1,1-dioxide]: the melting point lay within 174 to 176 °C.

For `CC1=NNS(=O)(=O)c2c(Cl)cccc21` [Example 6, 8-chloro-4-methylbenzo[1,2,3]thiadiazine-1,1-dioxide], the melting point lay in the range of 206 to 207 °C.

`CC1=NN(C)S(=O)(=O)c2c1cc(C)c(Cl)c2Cl` [Example 26, 7,8-Dichloro-2,4,6-trimethylbenzo[1,2,3]thiadiazine-1,1-dioxide] came in with a melting point of 179 to 180 °C.

With `CC1=NNS(=O)(=O)c2cc(Cl)ccc21` [Example 1, 7-chloro-4-methylbenzo[1,2,3]thiadiazine-1,1-dioxide], the melting point is 187 to 189 °C.

Consider `CC1=NN(C)S(=O)(=O)c2c(Cl)c(Cl)cc(C)c21` [Example 24, 7,8-Dichloro-2,4,5-trimethylbenzo[1,2,3]thiadiazine-1,1-dioxide], for which the melting point is 166 to 168 °C.

For the compound `COc1ccc2c(c1)C=NN(C)S2(=O)=O` [Example 22, 2-Methyl-6-methoxybenzo[1,2,3]thiadiazine-1,1-dioxide], the melting point is 99 to 101 °C.

`CCC1=NNS(=O)(=O)c2cc(Cl)ccc21` [Example 2, 4-Ethyl-7-chlorobenzo[1,2,3]thiadiazine-1,1-dioxide] registered a melting point of 196 to 198 °C.

Regarding `CCC1=NN(CC)S(=O)(=O)c2c1ccc(Cl)c2Cl` [Example 19, 2,4-Diethyl-7,8-dichlorobenzo[1,2,3]thiadiazine-1,1-dioxide], the melting point is 79 to 82 °C.

In the case of `COc1ccc2c(c1)C=NNS2(=O)=O` [Example 12, 6-Methoxybenzo[1,2,3]thiadiazine-1,1-dioxide], the melting point is 163 to 164 °C.

`CC1=NNS(=O)(=O)c2ccccc21` [Example 13, 4-Methylbenzo[1,2,3]thiadiazine-1,1-dioxide] gave a melting point of 183 to 185 °C.

For the compound `COc1ccc2c(c1Cl)S(=O)(=O)N(C)N=C2C` [Example 25, 8-chloro-7-methoxy-2,4-dimethylbenzo[1,2,3]thiadiazine-1,1-dioxide], the melting point lay in the range of 151 to 152 °C.

The compound `COc1ccc2c(c1Cl)S(=O)(=O)NN=C2C` [Example 7, 8-chloro-4-methyl-7-methoxybenzo[1,2,3]thiadiazine-1,1-dioxide] came in with a melting point of 227 to 229 °C.

One may read the melting point as the temperature of the solid-liquid transition.
